Assay results taken from patent US11786533B2, “Use of EZH2 inhibitors for treating cancer” (Epizyme, Inc., priority 2016, dated 2023).

Legend:
[1] = Oral bioavailability; format: in vivo
[2] = system: Animal models; test: In vivo efficacy in animal models
[3] = system: genetically defined cancer cells; test: Target methyl mark inhibition and killing of cancer cells in vitro; format: cell-based

oral bioavailability [1]: orally bioavailable
SMILES: CCN(c1cc(-c2ccc(CN3CCOCC3)cc2)cc(C(=O)NCc2c(C)cc(C)[nH]c2=O)c1C)C1CCOCC1 [Compound 44]
in vivo efficacy following inhibition of target methyl mark [2]: sustained in vivo efficacy
target methyl mark inhibition resulting in killing of cancer cells [3]: killing of genetically defined cancer cells in vitro
